Columns and labels:
nuclear DNA [1] = experiment: Platinum adducts (covalent nuclear DNA-binding) by ICP-MS in TNBC xenograft tumor sections; type: in vivo, beige SCID mice
Description: Thirty-nine mice were euthanized approximately 3 h after the last dose of veliparib and 24 h after the last dose of carboplatin; two mice used in the DCE-MRI pilot were euthanized 1.5 h after single-dose administration of veliparib and carboplatin (Fig. 1). Bilateral xenograft tumors and liver and muscle (quadriceps) tissues were harvested. Tissues were cut into three pieces and either embedded in optimum cutting temperature (OCT) formulation or were directly snap frozen in liquid-nitrogen-cooled isopentane and stored at − 80 °C until analysis. […] A separate fresh-frozen portion of each tissue per animal was ground for quantification of veliparib and carboplatin by LC-MS. Method development and details of the techniques are described in Additional file 1a-c. […]
b). Technical aspects of the ICP-MS method development. […]
(§1) DNA extraction procedure:
(§2) The DNA extraction was based on previous publications. 4 In short, 44 μL 1 mol L −1 NH4HCO3, 20 μL 20% (w/v) SDS, and 6 μL 1% (w/v) proteinase K solution were added successively, and incubated for 24hours using a thermomixer. After the digestion was complete, 146 μL saturated 6 mol L−1 NaCl was added to each tube and the tubes were shaken vigorously to precipitate proteins. The tubes were centrifuged for 10min at 2000 g and the supernatant containing the DNA was transferred to another tube. Subsequently, the supernatant was shaken, centrifuged, and transferred to another tube. Following this, 1.5ml absolute ethanol was added to precipitate the DNA and centrifuged from 30 minutes at 21 Kg at 4°C. The DNA was washed twice with 75% ethanol and was subsequently dissolved in 30 μL water. DNA concentrations were analyzed by measuring the absorbance at 260 nm using Nanodrop 1000 spectophotometer (NanoDrop).
(§3) Carboplatin adduct quantification:
(§4) The quantity of the carboplatin-adducts per mg DNA was quantified (Figure S8) using a previously validated […]
(§5) Figure S8: Example graph of mass spectrum of platinum in DNA extraction by ICP-MS.

[2] = Carboplatin one-compartment plasma PK model in mice; type: in vivo, beige SCID mice
Description: The PK of carboplatin in mice was assessed using a one-compartment model with bolus intravenous injection.
e) Supplements of the PK-model development.

nuclear DNA [3] = experiment: Platinum adducts by ICP-MS in PBMCs from patients (carboplatin + talazoparib phase 1); type: in vivo
Description: Carboplatin and platinum adducts were determined in a limited number of blood samples from a previously presented phase 1 clinical trial (NCT02358200). […] In the case of grade 3 or grade 4 toxicity, carboplatin and/or talazoparib doses were held until below grade 1 and resumed at a lower dose level. Blood samples were obtained from a limited number of patients during cycle 1 day 1 (prior to talazoparib dosing) and cycle 2 day 1 pre-dose and up to 24 h post dose, and PBMCs were derived at day 15 post dose, DNA was extracted as described in Additional file 1d and platinum adducts were quantified by ICP-MS (Additional file 1b).
The platinum adduct formation in PBMCs in 19 patients was linked to carboplatin concentrations in plasma using the Eq 1. […] In this model, we tested the hypothesis that PARPi interact with platinum formation. […] The formation of adducts correlated with the number of lymphocytes (P < 0.0001) and the gBRCA mutation status (P < 0.0001). […]
b). Technical aspects of the ICP-MS method development.
PBMCs were extracted from whole blood using by centrifugation. Lysis of red blood cells was performed as needed, then PMBCs were washed and resuspended in A limited number of 5-15 mL heparinised or EDTA whole blood samples from the PK study talazoparib/carboplatin phase 1 study were included. Following centrifugation for 15 min at 1,000 g, plasma was extracted and the PBS was added to a total volume of 9.5 ml to the remaing fraction. PMBCS were extracted using density-gradient centrifugation with Ficoll-Paque Plus® (Pharmacia, Uppsala, Sweden) at room temperature for 20 min at 400 g. PBMCs were washed twice with ice-cold PBS and centrifuged at 800 G for 5 minustes at 4 °C. Cells were counted and ther resuspended in 1 mL buffer containing 10 mmol L−1 Tris- HCl, 2.3% (w/v) NaCl, and 2 mmol L−1 EDTA disodium salt at pH 7.3.
as §1, §2, §3, §4, §5
(1 picture or pasted object on this page, not shown here)
Supplementary Table 2: PK patients estimates carboplatin and platinum adducts Structural model PK Estimat RS
Inter-individual variability on Platinum adduct formation (RPT) 317% proportional residual error plasma carboplatin 28% 26 […]
proportional residual error adduct formation 110% 6%
Platinum adduct formation:
CL=clearance, V=volume of distribution, KA= rate of absorption, RPT= ratio of carboplatin adduct formation, KPT= rate of carboplatin adduct formation, gBRCA = germline BRCA carrier […]
(also on this page, place not known: ( )adductsC−×× plasmaCRPT KPT=dt dCadducts)

[4] = design: method as in PMID 19526240; settings: ref [32]; cited from earlier work
HCC70 = settings: ref [23]; cited from earlier work
TNBC = test system: TNBC; design: method as in ref [4] = [4]; 4. Rugo HS, et al. Veliparib/carboplatin plus standard neoadjuvant therapy for high-risk breast cancer: first efficacy results from the I-SPY 2 TRIAL [abstract]. Cancer Res. 2013;73:Abstract nr S5_02.; settings: veliparib 50 mg BID combined with carboplatin, neoadjuvant; ref [4]; cited from earlier work
PARP1 = settings: read-out: IC50 for PARP1 inhibition; ref [3], [31]; cited from earlier work
PARP = settings: read-out: PARP trapping IC50; cited from earlier work

N.N.O=C([O-])C1(C(=O)[O-])CCC1.[Pt+2] [carboplatin]
Median conc. (RSE %), carboplatin adducts (nuclear DNA [1]; HCC70 xenografts): 1.85 μmol/g DNA | Median conc. (RSE %), carboplatin adducts (nuclear DNA [1]; HCC70 xenografts, listed as Carboplatin): 1.85 (42%) μmol/g DNA | Median conc. (RSE %), carboplatin adducts (nuclear DNA [1]; MDA-MB-231 xenografts): 0.55 μmol/g DNA | Median conc. (RSE %), carboplatin adducts (nuclear DNA [1]; MDA-MB-231 xenografts, listed as Carboplatin): 0.55 (23%) μmol/g DNA | Median conc. (RSE %), carboplatin adducts (nuclear DNA [1]; MDA-MB-436 xenografts): 0.54 μmol/g DNA | Median conc. (RSE %), carboplatin adducts (nuclear DNA [1]; MDA-MB-436 xenografts, listed as Carboplatin): 0.54 (27%) μmol/g DNA | Median conc. (RSE %), carboplatin adducts (nuclear DNA [1]; all TNBC xenograft tissue, 24 h after two carboplatin administrations, ICP-MS): 0.55 (30%) μmol/g DNA | Median conc. (RSE %), carboplatin adducts (nuclear DNA [1]; carboplatin combined with placebo): 0.476 (57) μmol/g DNA | Median conc. (RSE %), carboplatin adducts (nuclear DNA [1]; carboplatin combined with veliparib 60mg/kg for 3 days): 0.977 (33) μmol/g DNA | Median platinum adducts (nuclear DNA [1]; xenograft tumor sections): 546.3 nmol/g DNA | Clearance and volume of distribution of carboplatin with co-dosed veliparib (drug-drug interaction) ([2]; 0, 20 or 60 mg/kg veliparib doses): not significantly different | Half-life (t1/2) ([2]; beige SCID mice plasma): 21 min | CL ([2]; mice plasma): 34.2 mL/h | Interindividual variability on CL ([2]; mice plasma): 6% | Vd ([2]; mice plasma): 17.5 mL | RPT, ratio of adducts compared to plasma concentration (nuclear DNA [3]; 19 patients): 0.5% | Median conc. (RSE %), carboplatin adducts (nuclear DNA [3]; PBMCs from patients, ICP-MS): 0.0552 (30%) μmol/g DNA | Ratio of adducts in PBMCs/plasma concentration (nuclear DNA [3]; five gBRCA carriers): 0.64% | Ratio of adducts in PBMCs/plasma concentration (nuclear DNA [3]; nine non-carriers): 0.29% | RPT (%) carboplatin adducts, model estimate (nuclear DNA [3]; non-carriers, Supplementary Table 2): 1.20% | Median platinum adducts (nuclear DNA [3]; patient PBMC samples): 55.2 nmol/g DNA | Time platinum adducts remain detectable post dose (nuclear DNA [3]; patient PBMC samples): up to 15 days | Median platinum adducts, equivalent per blood volume (nuclear DNA [3]; patient PBMC samples, per L blood): 81.4 pg/L | Inter-individual variability on platinum adduct formation (RPT) (nuclear DNA [3]; patients): 317% | Adduct formation, single-agent treatment at day 1 versus combination with talazoparib (nuclear DNA [3]; patients PBMCs): no statistical difference | KPT, formation rate of adducts from plasma (nuclear DNA [3]; patients PBMCs): 0.0156 L/h

C[C@]1(c2nc3c(C(N)=O)cccc3[nH]2)CCCN1 [veliparib]
Protein binding capacity in human plasma [4]: 51% | Sensitivity in vitro (HCC70): insensitive | TN patients without pathologic complete response (pCR) (TNBC): approximately 42% | IC50 (PARP1): […] | IC50 (PARP): 57.4 µM
